Where “and” joins values, the source holds several entries; their conditions need not be identical. Equal values may be shown once. Calls of active or inactive are those of the source.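 The calls were made as follows: active = compounds giving half or more protection of infected cells from virus-caused growth loss, again on retest; inactive = the rest.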 Where a SMILES comes first, the peptide text is derived from it. [ ]: non-standard residue; d: D form. The star is where a group is joined. ξ: configuration not given here. X19 = O=C(OCc1ccccc1)[C@H]1CCC[C@H]1N*; ξW = NC(Cc1c[nH]c2ccccc12)C(=O)O; ξF = NC(Cc1ccccc1)C(=O)O; Cbz = O=C(OCc1ccccc1)*; Boc = CC(C)(C)OC(=O)*; ξK = NCCCCC(N)C(=O)O; ξT = CC(O)C(N)C(=O)O; tBu = CC(C)(C)*
Tested on: CEM cells HIV-1 protection, formazan growth assay
Assay: NCI AIDS Antiviral Assay
Conditions: for IC50: measured here: growth of uninfected CEM cells
Procedure, shortened: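 Protection of CEM cells against HIV-1 was scored from cell growth (soluble formazan) across five concentrations, with parallel uninfected cells. Lack of protection may reflect toxicity.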

SMILES | EC50 [µM] | IC50 | outcome
CC(=O)C(=Cc1ccc(C#N)cc1)C(C)=O | > 170 | 26.9 µM | –
CC(C)C(=O)/C=C/c1ccc(Cl)cc1Cl | – | – | inactive
C=C(C)CN1CCCN(S(=O)(=O)c2ccc(C)cc2)CC(=C)CN(S(=O)(=O)c2ccc(C)cc2)CCC1 | > 200 | 5.25 µM | –
CC(=O)ONC(C(=O)C(C)(C)C)C(=O)C(C)(C)C | > 200 | > 200 µM | –
CC(C)OC(=O)/C=C/C(=O)O/C=C/[N+](=O)[O-] | > 200 | 105 µM | –
O=C1NN=C2CCCCCCC12 (stereo not drawn) | > 302 | > 302 µM | –
CC(=O)NC(C)(C)C1CCC(C)=C(c2ccccc2)C1 (stereo not drawn) | > 95.5 | 47.9 µM | –
CC1(C)CC(=O)c2c(nc3c(ccc4ccccc43)c2-c2ccc(NC(=O)CCCC(=O)Nc3ccc(-c4c5c(nc6c4ccc4ccccc46)CC(C)(C)CC5=O)cc3)cc2)C1 | > 50.1 | > 50.1 µM | –
CC1(C)Oc2cc(OCc3ccccc3)ccc2C2Oc3cc(OCc4ccccc4)c(O)cc3C21 (stereo not drawn) | > 200 | 79.4 µM | –
C/C(=N/NC(=S)N(Cc1ccccn1)Cc1ccccn1)c1cnccn1 | 0.2 | 0.339 µM | –
NC(=O)C(=CNc1nc(-c2ccc(Br)cc2)cs1)C(N)=O | > 200 | 135 µM | –
NC(=O)c1ncn(C2OC(CO)C(O)C2O)c1NC=O (stereo not drawn) | > 200 | > 200 µM | –
CC1(C)C2CCC1C(=O)C(C=O)C2 (stereo not drawn) | > 200 | > 200 µM | –
O=C1/C(=C/c2cccc(O)c2)COc2ccccc21 | > 123 | 4.27 µM | –
CC(OC(C)(C)C)C(NC(=O)C(CCCCNC(=O)OC(C)(C)C)NC(=O)C(Cc1c[nH]c2ccccc12)NC(=O)C(Cc1ccccc1)NC(=O)OCc1ccccc1)C(=O)NC(Cc1ccccc1)C(=O)N[C@@H]1CCC[C@@H]1C(=O)OCc1ccccc1 (stereo partly drawn) (Cbz-[ξF][ξW][ξK](Boc)[ξT](tBu)[ξF]-X19) | – | – | inactive
c1cnc(NC(Nc2cnccn2)C2CCCCC2)cn1 | > 240 | > 240 µM | –
CC1=C[C@H]2c3c([nH]c4ccccc34)C(c3c[nH]c4ccccc34)[C@H]2CC1 (stereo partly drawn) | – | – | inactive
O=C1NC(=O)/C(=C/c2ccc(S(=O)(=O)N/N=C\C(O)C(O)C(O)CO)cc2)N1 (stereo not drawn) | > 200 | 135 µM and 191 µM | –
COC(=O)CC1NC(=O)C1C(C)(OC)OC (stereo not drawn) | 191 | 251 µM | –
CC(=O)NNc1nc(C)c(C(=O)NNC(=O)C(=O)Nc2c(C)cccc2C)s1 | > 89.1 | 28.2 µM | –
O=C(CCCN1CCC2(CC1)C(=O)NCN2c1ccccc1)c1ccc(F)cc1 | > 200 | 13.5 µM | –

SMILES | EC50 [µM] | IC50 | outcome
Clc1ccc(N=C/C=C/Nc2ccc(Cl)cn2)nc1 | > 200 | 13.8 µM | –
CCC(CCCC[C@@H]1CC[C@H]2CC(=O)C[C@@H]12)OC (stereo partly drawn) | > 200 | 151 µM | –
CN(C)CC1CCCCCCCCCCCCC(CN(C)C)C1=O (stereo not drawn) | > 21.4 | > 21.4 µM | –
Cc1ccc[n+](N)c1N | > 1000 | > 1000 µM | –
CCN(CC)C1=Nc2ccccc2-n2c(C)cnc2C1 | > 200 | > 200 µM | –
C[C@]12CC[C@@H]3c4ccc(OC(=O)c5ccccc5)cc4CC[C@H]3[C@@H]1CCC2OC(=O)c1cccc2c(=O)c3ccccc3[nH]c12 (stereo partly drawn) | > 151 | 7.94 µM | –
CCCCC1Sc2cc(OC)cc([N+](=O)[O-])c2NC1=O (stereo not drawn) | > 200 | 61.7 µM | –
CCN(CC)C(=O)O/N=C(/C)c1ccccc1 | > 200 | > 200 µM | –
Fc1ccc(C2(CCCN3CCc4[nH]c5cc(F)ccc5c4C3)OCCO2)cc1 | > 200 | 18.6 µM | –
C[n+]1c(-c2ccc(/C=N/NC(=O)c3cc(O)c(C(=O)N/N=C/c4ccc(-c5cn6ccccc6[n+]5C)cc4)cc3O)cc2)cn2ccccc21 | > 6.31 | > 6.31 µM | –
CC1OC(OC2C(CO)OC(O[C@H]3CC[C@@]4(C)C(=CC[C@H]5[C@@H]6C[C@@H]7O[C@](O)(CC[C@H](C)COC8OC(CO)C(O)C(O)C8O)[C@@H](C)[C@@H]7[C@@]6(C)CC[C@@H]54)C3)C(OC3OC(C)C(O)C(O)C3O)C2O)C(O)C(O)C1O (stereo partly drawn) | > 200 | 1.48 µM | –
O=C(/C=C/c1ccc(OCc2ccccc2)c(OCc2ccccc2)c1)OCc1ccccc1 | > 200 | > 200 µM | –
CCOC(=O)C(=O)C(=O)NN(C)C1=NCCN1 | > 200 | > 200 µM | –
Cc1ccc2c(n1)C(N(C)C)=CC(=O)C2=O | – | – | inactive
CCOC(=O)C1SC(=Nc2ccc(Cl)cc2)N=C1C (stereo not drawn) | > 87.1 | > 87.1 µM | –
COc1ccc2nc3cc([N+](=O)[O-])ccc3c(NNc3ccc(Cl)cc3)c2c1 | > 200 | 33.1 µM | –
CCC1(C)C=Cc2c(cc(O)c3c(=O)c4ccccc4n(C)c23)O1 (stereo not drawn) | > 200 | > 200 µM | –
COc1cc2cnc3c4cc(OS(=O)(=O)c5ccccc5)ccc4ccc3c2cc1OC | > 14.5 | > 14.5 µM | –
CC1=Nc2ccccc2NC(c2ccoc2)C1 (stereo not drawn) | > 22.9 | > 22.9 µM | –
COC1/C=C/OC2(C)Oc3c(C)c(O)c4c(O)c(c(C5SCCS5)c(O)c4c3C2=O)NC(=O)/C(C)=C\C=C\C(C)C(O)C(C)C(O)C(C)C(O)C1C (stereo not drawn) | > 200 | 1 µM | –
Cc1cccc(C(=O)NCCN(C)C)c1[N+](=O)[O-] | > 200 | > 200 µM | –

SMILES | EC50 [µM] | IC50 | outcome
O=C(CCc1nnc2s/c(=C\c3ccccc3Cl)c(=O)n12)Nc1cc(Cl)ccc1Cl | > 525 | > 525 µM | –
Oc1ccccc1-n1nc2ccc3nonc3c2n1 | > 200 | > 200 µM | –
NC1=NN(c2ccccc2)C(=O)C1C(=O)C(=O)Nc1nccs1 (stereo not drawn) | > 79.4 | > 79.4 µM | –
CC(=O)Nc1ccc(C(=O)NN2C(=O)C(Cl)C2c2ccccc2O)cc1 (stereo not drawn) | > 200 | 31.6 µM | –
NCCOCCOCC(=O)O | – | – | inactive
CC/C=N\N1C(N)=C(C#N)C(C#N)(C#N)C1CC (stereo not drawn) | > 200 | 64.6 µM | –
O=C1CCCCCCC2=C1C(Sc1ccccc1)CC2 (stereo not drawn) | > 200 | 30.9 µM | –
CNC(=O)N(C)COC | > 759 | 115 µM | –
Clc1ccc(OCc2nnc(CCCCCCCCc3nnc(COc4ccc(Cl)cc4)o3)o2)cc1 | > 200 | 89.1 µM | –
COc1ccc(C2N(c3ccc(F)cc3)C(=O)N3C(c4ccc(OC)cc4)N(c4ccc(F)cc4)C(=O)N23)cc1 (stereo not drawn) | > 200 | > 200 µM | –
CC(O)c1nc(C#N)c(N)o1 (stereo not drawn) | 3.31 | > 200 µM | –
CCOC(=O)c1nnc(-c2ccccc2)nc1Cl | > 200 | > 200 µM | –
S=C(NC1=NCC(CN2CCN(c3ccccc3)CC2)O1)Nc1ccccc1 (stereo not drawn) | > 200 | 45.7 µM | –
O=c1c2ccccc2[nH]c(=S)n1-c1ccc(Br)cc1 | > 40.7 | > 40.7 µM | –
CC(=O)Nc1ccc(CNc2cc(=O)[nH]c(=O)[nH]2)cc1 | > 200 | > 200 µM | –
CCN(CC)Cc1cc(Nc2c3ccccc3nc3c2[nH]c2ccccc23)cc(CN(CC)CC)c1O | > 427 | 0.269 µM | –
CCCCNC(=S)N/N=C/c1cccc(C)n1 | > 200 | 12 µM | –
Cc1[nH]n(-c2ncc(C#N)c(=O)[nH]2)c(=O)c1CCO | > 200 | > 200 µM | –
COC1=C(C(=O)OC(C)(C)C)[C@]2(C)C(C(=O)OC(C)(C)C)C(OC)=C(C(=O)OC(C)(C)C)[C@]2(C)C1C(=O)OC(C)(C)C (stereo partly drawn) | – | – | inactive
OC1COC2CC(Nc3ccccn3)OC12 (stereo not drawn) | > 200 | > 200 µM | –

Source: PubChem BioAssay AID179 (DTP/NCI, 2004)
